For assay [1], the system named is phosphorylated S6 ribosomal protein serine 240/244 (pS6). Put plainly: AlphaScreen SureFire detection of pS6 in U87MG cells. It is filed as cell-based. The conditions noted are these: Homo sapiens, U-87 MG, 1 hour. Here is the method: The effect of compounds on the formation of endogenous phosphorylated S6 ribosomal protein serine 240/244 (pS6) and phosphorylated GSK3β serine 9 (pGSK3β) are measured using the AlphaScreen SureFire® for either pS6 (TGR Biosciences, TGRS6P2S10K) or pGSK3β(TGRGBS10K). This is a homogeneous assay format using immuno-sandwich capture of the phosphorylated analyte followed by detection using antibody-coated Alphascreen beads to generate an amplified signal.
U87MG cells are maintained in U87MG growth medium consisting of DMEM supplemented with 10% Fetal bovine serum (FBS), 1% Nonessential amino acids and 1% sodium pyruvate. For the assay, cells are harvested by standard procedures and then counted using Vi-Cell. Cells (50,000/well) are plated in 100 μL of U87MG growth medium into Costar #3596 96 well plates. […]
On the day of the assay, cells are treated with 20 μL/well compound diluted in media containing 6% DMSO. […] The plate is sealed with foil, incubated at RT for 4 hours with gentle shaking and then read on Perkin Elmer EnVision equipped with a TurboModule using standard AlphaScreen® settings (Ex680nm and Em520-620nm). The percent inhibition determined from controls on each plate and ten-point compound concentration data are then fit to a four-parameter logistic equation using ACTIVITYBASE 4.0 (Assay Guidance Manual Version 5.0, 2008, Eli Lilly and Company and NIH Chemical Genomics Center).
(In Alpha technology, singlet oxygen from a donor bead excites a nearby acceptor bead.)

For another assay, the system named is pAKT S473. As to the kind of experiment: p70 S6K/AKT In Vivo Target Inhibition, U87MG xenograft, pAKT. Also on record: species or system athymic nude mice. The conditions noted are these: Mus musculus, U-87 MG, IV Dose 12.5 mpk, U87MG tumors. Here is the method: U87MG human glioblastoma cells (5×106) are subcutaneously implanted into the flank of athymic nude mice in 0.2 mL of matrigel. Two weeks post-implantation, mice are dosed orally or parenterally according to a time course, single dose/single time point, or dose response protocol for the determination of TMED50 (threshold minimum effective dose). Tumors are flash frozen at harvest and blood is collected for the determination of parent compound plasma exposure and the calculation of TMEC50 (threshold minimum effective concentration) in the case of dose response studies. Tumors or tissues are pulverized in liquid N2 and lysed in 400 μL of XY Lysis Buffer (10 μg/mL Leupeptin, 10 μg/mL Trypsin-Chymotrypsin Inhibitor, 10 μg/mL Tosyl phenyl-alanyl chloromethyl ketone, 10 μg/mL Aprotinin, 60 mM Beta-Glycerol Phosphate, 1% Triton X100, 25 mM Tris pH 7.5, 2.5 mM Pyrophosphate, 150 mM NaCl, 2 mM p-tosyl-L-arginine methyl ester, 15 mM para-nitrophenyl phosphate, 5 mM Benzamidine, 1 mM Na Vanadate, 10 mM NaF, 50 μg/mL phenyl-methane sulfonyl fluoride, 1 mM 1,4-Dithiothreitol (DTT), 15 mM EDTA pH 8.0, 5 mM EGTA pH 8.0, 1 μM Microcystin, 1 μM Okadaic Acid, and 1 Roche Complete protease inhibitor mini-tablet per 10 mL) using Lysing Matrix D tubes (MP Biomedicals, Solon, Ohio, cat#6913-500) and a BIO101 Thermo Savant Fast Prep FP12. Lysates are aliquoted and either assayed immediately or stored at −80° C. for later testing. In Vivo Target Inhibition of p70 S6K and AKT is measured utilizing Meso Scale Discovery (Gaithersburg, Md.) ELISA technology to assess effects on phosphorylation of the serine 240/244 site of the downstream effector S6RP. Phosphorylation of p70 S6K(T389), AKT(5473) and GSK3β(S9) is also assessed using this technology in a multiplex format. In summary, 20 μg of lysate is added to carbon electrode containing 96-well plates pre-spotted with the appropriate capture antibodies. The protein of interest is probed using a ruthenium labeled detection antibody. Upon the passage of current over the electrode in the presence of read buffer containing the co-reactant TPA, electro-chemiluminescence results in the generation of light which is quantified and recorded using the MSD Sector 6000 instrument. For each study, percent inhibitions are calculated relative to the vehicle control group and ANOVA analysis is performed using the JMP software package for the determination of statistical significance.

SMILES strings stand for the structures.

Our source for the IC50 and inhibition values is patent publication US8148387B2, “AKT and P70 S6 kinase inhibitors” (Eli Lilly and Company, priority 2008, dated 2012).

In the case of `CN(C)CCn1cc(-c2ccc(F)c(C(F)(F)F)c2)nc1C1CCN(c2ncnc3c2C(C)(C)C(=O)N3)CC1` [Example 31], half-maximal inhibition in assay [1] (IC50) required 65 nM. Further, the inhibition (usually the drop in the measured response relative to a control, in per cent) at 12.5 mg/kg in the assay on pAKT S473 (1 hr post IV dose) is 4%; in the assay with pAKT S473 (2 hr post IV dose), -22.3%; in the assay on pAKT S473 (4 hr post IV dose) it was -19.2%; with pAKT S473 (6 hr post IV dose), -26.3%; in the assay on pAKT S473 (8 hr post IV dose), -9.4%; in the assay with pAKT S473 (24 hr post IV dose), 22.6%.
